Measured values as given in patent publication US20230357099A1, “PYRAZOLO [3,4-B] PYRIDINE-4-CARBOXAMIDE NITRIFICATION INHIBITOR” (EUROCHEM ANTWERPTEN, priority 2020, published 2023).

Columns and labels:
[1] = tested on: Nitrososphaera viennensis; assay: Nitrification inhibition assay on Nitrososphaera viennensis (nitrite, Griess); type: cell-based, Nitrososphaera viennensis EN76T; settings: Nitrososphaera viennensis; 2.5 µM compound; structural variants outside formula (I); read-out: Relative nitrification (%) by Nitrososphaera viennensis treated with 2.5 µM compound
Protocol: Nitrite (NO2—) was measured using the Griess reagent (Product number: G4410, Griess reagent (modified), Sigma-Aldrich). Equal volumes of the sample or a diluted sample and the Griess reagent were mixed a transparent flat bottom multi-well plate and incubated in the dark at room temperature for 10 minutes. Absorbance values at 540 nm were measured spectrophotometrically (EnVision, Perkin Elmer®) and used to calculate the [NO2—] by use of a standard curve.
A liquid culture sample of Nitrososphaera viennensis EN76T was kindly supplied by prof. dr. Christa Schleper (University of Vienna). Cells were grown in fresh water medium (FWM) as described earlier by Tourna et al. (2011). All necessary materials were rinsed with 1 % HCl and washed at least 3 times with MilliQ water. FWM (pH 7.5 (KOH)) contained 17 mM NaCl, 3 mM MgCl2 × 2 H2O, 680 µM CaCl2 × 2 H2O, 1.47 mM KH2PO4 and 6.71 mM KCI. After autoclaving, successively 1 mL non-chelated trace element mixture (101 mM HCl, 488 µM H3BO3, 508 µM MnCl2 × 4 H2O, 803 µM CoCl2 × 6 H2O, 101 µM NiCl2 × 6 H2O, 12 µM CuCl2 × 2 H2O, 503 µM ZnSO4 × 7 H2O and 150 µM Na2MoO4 × 2 H2O), 1 mL Fe-NaEDTA (7.5 mM), 1 mL vitamin solution (20 mg/L biotin, 20 mg/L folic acid, 100 mg/L pyridoxine-HCl, 50 mg/L thiamine-HCl, 50 mg/L riboflavin, 50 mg/L nicotinic acid, 50 mg/L DL-pantothenic acid, 50 mg/L P-aminobenzoic acid, 2 g/L choline chloride and 10 mg/L vitamin B12), 2 mL NaHCO3 (1 M), 2 mL kanamycin (100 mg/mL), 2 mL carbenicillin (100 mg/mL), 3 mL NH4Cl (1 M), 10 mL HEPES buffer (1 M, pH 7.6) and 1 mL Na-pyruvate (0.1 M) were added aseptically. All stock-solutions were filter-sterilized, except the autoclaved non-chelated trace element mixture. Cultures were incubated aerobically at 42° C. without shaking in sterile 250-mL Erlenmeyer flasks or 30-mL cultivation tubes (Product number: 216-1290, Quickstart universal containers STERILIN®, VWR) filled with either 100 or 20 mL FWM and sealed with tape (Micropore™ Surgical Tape 1530-1, 3M™). Late-log phase cultures ([NO2-] ≥ 1 mM) were subcultivated by dilution (1:400) in fresh FWM.
7-day old 100 mL cultures grown in 250-mL Erlenmeyer flasks with a [NO2-] ≥ 1 mM were 5 times overconcentrated in fresh FWM by centrifugation (4000 rpm, 15 min, 5° C.) in 50 mL centrifuge tubes (Cat. No. 430829, CentriStar™ Conical Centrifuge Tubes, Corning®). Per batch, all the cultures were pooled in one sterile Schott bottle. Subsequently, 200 µl/well was dispensed at low pipetting speed in transparent flat bottom 96-well plates (Cat. No. 353072, Falcon® 96 Well Clear Microplate, Corning®) using 150 µl wide-bore tips (two steps of 100 µl) on a Tecan robot (Freedom EVO®, Tecan). 0.5 µl of 99.99 % DMSO (negative control - final concentration 0.25%) and 0.5 µl of 0.04 M PTIO (2-phenyl-4,4,5,5-tetramethylimidazoline-1-oxyl 3-oxide, positive control - final concentration 100 µM) were added manually to the first and last column respectively. Finally, 0.5 µl of candidate nitrification inhibitors (1 mM stock solutions in 99.99% DMSO - final concentration 2.5 µM) were added to the central wells using a pin tool on a Tecan robot (Freedom EVO®, Tecan). In between additions, the pins were washed in sequence with 99.5% DMSO, MilliQ water and 100% ethanol and air-dried. All plates were sealed with tape (Micropore™ Surgical Tape 1530-1, 3M™), stacked per 4 on top of a 96-well plate filled with 100 µl MilliQ per well and covered with aluminum foil. Position effects of the stacks within the incubator were considered. Plates were incubated at 42° C. without shaking. 24 h later, NO2— was measured spectrophotometrically at 540 nm (EnVision, Perkin Elmer®). […]

[2] = tested on: ABIL (ammonia-binding liquid inoculum), nitrifying microbial enrichment containing both AOA and AOB; assay: Nitrification inhibition assay on ABIL (ammonium consumption); type: cell-based; settings: 10 µM compound; structural variants outside formula (I); read-out: Relative nitrification (%) by ABIL treated with 10 µM compound

Row | Compound | activity at 2.5 µM [1] [%] | activity at 10 µM [2] [%]
1 | O=S(=O)(Nc1n[nH]c2ccccc12)c1ccccc1C(F)(F)F [Example 139] | 97 | 100
2 | COC(C)(C)c1noc(Cc2n[nH]c3ccccc23)n1 [Example 125] | 97 | 100
3 | O=C(NCCCCc1ccccc1)c1n[nH]c2ccccc12 [Example 146] | 96 | 100
4 | CC(C)n1ncc2cc(C(=O)NCc3ccccc3OC(F)(F)F)cnc21 [Example 42] | 98 | 98
5 | O=S(=O)(Nc1ccc2cn[nH]c2c1)c1cccc2ccccc12 [Example 161] | 100 | 100
6 | O=C1NCCN1c1cccc(NCc2cccc3cn[nH]c23)c1 [Example 116] | 96 | 99
7 | COc1ccc(OC)c(C(C)NC(=O)c2cnc3c(cnn3C(C)C)c2)c1 (stereo not drawn) [Example 39] | 100 | 97
8 | Cc1nccc(Nc2ccc3[nH]ncc3c2)n1 [Example 115] | 96 | 98
9 | Cc1n[nH]c2ncc(CNCc3ccc4c(c3)OCO4)cc12 [Example 70] | 100 | 100
10 | Cc1nc2c(cnn2C(C)C)cc1C(=O)NC(C)C1CCCO1 (stereo not drawn) [Example 90] | 93 | 100
11 | O=C(NCCCSc1ccccc1)c1n[nH]c2ccccc12 [Example 136] | 96 | 100
12 | COC(=O)c1cc(CNC(=O)c2n[nH]c3ccccc23)ccc1OC [Example 100] | 96 | 90
13 | CCc1cccc(NC(=O)CCc2c(C)nc3c(c(C)nn3C)c2C)c1 [Example 34] | 99 | 96
14 | CCCc1nnc(NCc2cccc3cn[nH]c23)o1 [Example 151] | 94 | 100
15 | O=S(=O)(CCC1CC1)Nc1n[nH]c2cccc(F)c12 [Example 102] | 100 | 90
16 | Cc1nc2c(c(C)nn2C)c(C)c1CCC(=O)Nc1ccccc1C(=O)O [Example 77] | 100 | 100
17 | CNC(=O)N(C)C(=O)c1cnc2c(cnn2C(C)C)c1 [Example 27] | 100 | 92
18 | CC(NC(=O)C1(NC(=O)c2ccc3[nH]ncc3c2)CCCC1)C1CC1 (stereo not drawn) [Example 138] | 100 | 100
19 | CCC1CN(C(=O)CCc2c(C)nc3c(c(C)nn3C)c2C)CCO1 (stereo not drawn) [Example 58] | 98 | 100
20 | Cc1nn(C)c2ncc(CNCCCN3CCc4ccccc43)cc12 [Example 37] | 100 | 97
21 | O=C1NC(=S)S/C1=C\c1cccc2cn[nH]c12 [Example 124] | 99 | 100
22 | Cc1nc2c(cnn2C(C)C)c(C)c1CCC(=O)N1CCSCC1 [Example 26] | 100 | 92
23 | CC(C)n1ncc2cc(C(=O)Nc3ccc(F)cc3F)cnc21 [Example 33] | 100 | 94
24 | O=C(O)CC1CSCCN1C(=O)c1cccc2cn[nH]c12 (stereo not drawn) [Example 114] | 100 | 98
25 | O=C(NC1=NCCS1)c1n[nH]c2ccccc12 [Example 111] | 95 | 98
26 | CC(C)n1ncc2cc(CNc3ccc4[nH]ncc4c3)ccc21 [Example 30] | 100 | 92
27 | COc1ccc(C(O)CNCc2cccc3cn[nH]c23)cc1 (stereo not drawn) [Example 154] | 99 | 100
